ChEMBL document CHEMBL4842339, “8-Hydroxyquinolin-2(1H)-one analogues as potential β2-agonists: Design, synthesis and activity study” (Eur J Med Chem, 2021)

Columns and labels:
[1] = target: Beta-2 adrenergic receptor (Homo sapiens, UniProt P07550); experiment: Agonist activity at human beta2 adrenoreceptor overexpressed in HEK293 cells assessed as cAMP accumulation; type: functional, cell-based
[2] = […] agonist activity at beta2 adrenergic receptor isolated from guinea pig tracheal smooth muscle assessed as inhibition of histamine-induced tracheal smooth muscle contraction by measuring maximal relaxant effect relative to control; type: functional; details: Cavia porcellus
[3] = target: Beta-1 adrenergic receptor (Homo sapiens, UniProt P08588); experiment: Agonist activity at human beta1 adrenoreceptor overexpressed in HEK293 cells assessed as cAMP accumulation; type: functional, cell-based
Chain of Beta-1 adrenergic receptor (P08588 whole entry): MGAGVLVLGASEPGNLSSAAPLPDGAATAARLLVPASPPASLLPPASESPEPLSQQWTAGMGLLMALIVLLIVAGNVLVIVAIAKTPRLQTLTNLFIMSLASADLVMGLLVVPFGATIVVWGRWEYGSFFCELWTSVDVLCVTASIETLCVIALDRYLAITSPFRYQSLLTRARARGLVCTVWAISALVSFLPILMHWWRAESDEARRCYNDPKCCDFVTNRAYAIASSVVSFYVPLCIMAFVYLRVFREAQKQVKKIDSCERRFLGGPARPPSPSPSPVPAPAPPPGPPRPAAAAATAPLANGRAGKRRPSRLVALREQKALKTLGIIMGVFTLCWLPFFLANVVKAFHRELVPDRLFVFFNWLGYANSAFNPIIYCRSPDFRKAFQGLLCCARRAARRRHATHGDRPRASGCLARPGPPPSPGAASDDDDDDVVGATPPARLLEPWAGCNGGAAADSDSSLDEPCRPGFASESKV

[4] = […] agonist activity at beta2 adrenergic receptor isolated from guinea pig tracheal smooth muscle assessed as inhibition of histamine-induced tracheal smooth muscle contraction; type: functional, Cavia porcellus
Cavia porcellus [5] = organism: Cavia porcellus; experiment: Myorelaxant effect in guinea pig model of histamine-induced smooth muscle contraction assessed as time duration of action measured over 12 hrs; type: functional; details: time hrs >12
Cavia porcellus [6] = organism: Cavia porcellus; experiment: Myorelaxant effect in guinea pig model of histamine-induced smooth muscle contraction assessed as time of onset of action measured over 12 hrs; type: functional

Chain of Beta-2 adrenergic receptor (P07550 whole entry): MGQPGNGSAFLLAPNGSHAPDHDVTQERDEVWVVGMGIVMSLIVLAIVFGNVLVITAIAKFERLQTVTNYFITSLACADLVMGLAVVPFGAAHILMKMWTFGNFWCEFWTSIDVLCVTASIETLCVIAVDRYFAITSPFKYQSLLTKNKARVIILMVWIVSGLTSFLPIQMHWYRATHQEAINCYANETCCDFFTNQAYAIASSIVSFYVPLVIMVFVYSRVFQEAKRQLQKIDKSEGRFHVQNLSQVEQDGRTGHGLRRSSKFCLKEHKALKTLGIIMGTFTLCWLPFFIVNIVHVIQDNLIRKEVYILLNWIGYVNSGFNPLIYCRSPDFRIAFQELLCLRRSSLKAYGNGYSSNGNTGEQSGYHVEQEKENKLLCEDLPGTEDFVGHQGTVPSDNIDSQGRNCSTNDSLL

SMILES	EC50 [1]	Emax [2]	EC50 [3]	pD2 [4]	Time (Cavia porcellus [5])	Time (Cavia porcellus [6])
O=c1ccc2c(C(O)CNCCCc3cccc(F)c3)ccc(O)c2[nH]1 (stereo unspecified)	0.0245 nM	–	–	–	–	–
CC(CCc1ccc(O)cc1)NCC(O)c1ccc(O)c2[nH]c(=O)ccc12 (stereo unspecified)	0.0107 nM	71.3%	–	–	–	–
CC(CCc1cccc(Cl)c1)NCC(O)c1ccc(O)c2[nH]c(=O)ccc12 (stereo unspecified)	0.0724 nM	105%	–	–	–	–
Cc1ccccc1CCC(C)NCC(O)c1ccc(O)c2[nH]c(=O)ccc12 (stereo unspecified)	–	–	6.76 nM	–	–	–
COc1ccccc1CC[C@@H](C)NC[C@H](O)c1ccc(O)c2[nH]c(=O)ccc12	0.0288 nM	–	–	–	–	–
Cc1ccccc1CCC(C)(C)NCC(O)c1ccc(O)c2[nH]c(=O)ccc12 (stereo unspecified)	0.0178 nM	–	–	–	–	–
COc1ccc(CCC(C)(C)NCC(O)c2ccc(O)c3[nH]c(=O)ccc23)cc1.Cl (stereo unspecified)	0.0309 nM	161%	7.76 nM	7.86	–	–
CC(CCc1cccc(O)c1)NCC(O)c1ccc(O)c2[nH]c(=O)ccc12 (stereo unspecified)	0.0135 nM	–	–	–	–	–
CC(CCc1ccc(Cl)cc1)NCC(O)c1ccc(O)c2[nH]c(=O)ccc12 (stereo unspecified)	–	–	6.31 nM	–	–	–
CC(C)(CCc1cccc(O)c1)NCC(O)c1ccc(O)c2[nH]c(=O)ccc12.Cl (stereo unspecified)	0.0182 nM	103%	2.4 nM	6.37	–	–
COc1ccccc1CCC(C)NCC(O)c1ccc(O)c2[nH]c(=O)ccc12 (stereo unspecified)	0.0148 nM	–	–	–	–	–
Cc1cccc(CCC(C)(C)NCC(O)c2ccc(O)c3[nH]c(=O)ccc23)c1 (stereo unspecified)	–	152%	2.63 nM	–	–	–
CC(C)(CCc1cccc(Cl)c1)NCC(O)c1ccc(O)c2[nH]c(=O)ccc12.Cl (stereo unspecified)	–	–	–	–	>12 h	3.43 min
COc1ccccc1CCC(C)(C)NCC(O)c1ccc(O)c2[nH]c(=O)ccc12 (stereo unspecified)	0.0224 nM	141%	–	–	–	–
Cc1ccccc1CCCNCC(O)c1ccc(O)c2[nH]c(=O)ccc12.Cl (stereo unspecified)	0.0575 nM	125%	17 nM	7.72	–	–
COc1ccc(CCC(C)NCC(O)c2ccc(O)c3[nH]c(=O)ccc23)cc1.Cl (stereo unspecified)	0.0182 nM	104%	44.7 nM	7.48	–	–
CC(CCc1ccccc1Cl)NCC(O)c1ccc(O)c2[nH]c(=O)ccc12.Cl (stereo unspecified)	0.0339 nM	95.3%	4.57 nM	7.87	–	–
COc1cccc(CCC(C)NCC(O)c2ccc(O)c3[nH]c(=O)ccc23)c1.Cl (stereo unspecified)	0.0214 nM	196%	2.57 nM	7.33	>12 h	4.97 min

SMILES	EC50 [1]	Emax [2]	EC50 [3]	pD2 [4]	Time (Cavia porcellus [5])	Time (Cavia porcellus [6])
COc1cccc(CCC(C)(C)NCC(O)c2ccc(O)c3[nH]c(=O)ccc23)c1 (stereo unspecified)	–	112%	7.59 nM	–	–	–
COc1cc(CCC(C)NCC(O)c2ccc(O)c3[nH]c(=O)ccc23)cc(OC)c1OC (stereo unspecified)	–	141%	35.5 nM	–	–	–
Cc1ccc(CCC(C)(C)NCC(O)c2ccc(O)c3[nH]c(=O)ccc23)cc1 (stereo unspecified)	–	–	24.5 nM	–	–	–
Cc1ccc(CCC(C)NCC(O)c2ccc(O)c3[nH]c(=O)ccc23)cc1.Cl (stereo unspecified)	0.038 nM	95.9%	10.5 nM	7.58	–	–
COc1cc(CCCNCC(O)c2ccc(O)c3[nH]c(=O)ccc23)cc(OC)c1OC.Cl (stereo unspecified)	0.0832 nM	111%	10000 nM	7.74	–	–
CC(CCc1cccc(F)c1)NCC(O)c1ccc(O)c2[nH]c(=O)ccc12 (stereo unspecified)	–	163%	3.09 nM	–	–	–
CC(CCc1ccc(F)cc1)NCC(O)c1ccc(O)c2[nH]c(=O)ccc12 (stereo unspecified)	0.0282 nM	100%	–	–	–	–
CC(C)(CCc1ccccc1Cl)NCC(O)c1ccc(O)c2[nH]c(=O)ccc12 (stereo unspecified)	–	124%	1.74 nM	–	–	–
Cc1cccc(CCCNCC(O)c2ccc(O)c3[nH]c(=O)ccc23)c1.Cl (stereo unspecified)	0.038 nM	144%	14.5 nM	7.66	–	–
O=c1ccc2c(C(O)CNCCCc3cc(F)cc(F)c3)ccc(O)c2[nH]1 (stereo unspecified)	0.0214 nM	–	–	–	–	–
O=c1ccc2c(C(O)CNCCCc3cccc(C(F)(F)F)c3)ccc(O)c2[nH]1 (stereo unspecified)	0.0282 nM	–	–	–	–	–
Cc1cccc(CCC(C)NCC(O)c2ccc(O)c3[nH]c(=O)ccc23)c1 (stereo unspecified)	–	–	4.07 nM	–	–	–
Cc1ccc(CCCNCC(O)c2ccc(O)c3[nH]c(=O)ccc23)cc1 (stereo unspecified)	0.0955 nM	–	–	–	–	–
Cl.O=c1ccc2c(C(O)CNCCCc3ccc(F)cc3)ccc(O)c2[nH]1 (stereo unspecified)	0.0468 nM	153%	16.2 nM	7.39	–	–
CC(C)NCC(O)c1ccc(O)c(O)c1 (stereo unspecified) [ISOPROTERENOL]	–	181%	–	–	–	3.1 min
COc1ccc(CC(C)(C)NC[C@H](O)c2cc(O)cc3c2OCC(=O)N3)cc1 [OLODATEROL]	–	170%	123 nM	–	–	2.31 min
OCc1cc(C(O)CNCCCCCCOCCCCc2ccccc2)ccc1O (stereo unspecified) [SALMETEROL]	–	172%	–	–	–	4.23 min
